Experimental data from PubChem BioAssay AID248 (DTP/NCI, 2004).
Where “and” joins values, the source holds several entries; their conditions need not be identical. Equal values may be shown once. Inconclusive results and toxic doses are left out. Rule as the data show it: active = T/C of 150% or more; inactive = T/C below 125%.

System: L1210 leukemia ip in BDF1 mice, survival T/C
Experiment: NCI In Vivo Anticancer Drug Screen. Data for tumor model L1210 Leukemia (intraperitoneal) in B6D2F1 (BDF1) mice
Details: endpoint: mean survival time, higher = longer survival
How it was run: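 Ratio derived from survival: compound-dosed mice over vehicle-dosed mice, all bearing a transplantable tumor.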

[1] = dose: 100.0 mg/kg/injection, schedule: Q04DX003 (ip), vehicle: saline with Tween-80
[2] = dose: 200.0 mg/kg/injection, schedule: Q04DX003 (ip), vehicle: saline with Tween-80
[3] = dose: 400.0 mg/kg/injection, schedule: Q04DX003 (ip), vehicle: saline with Tween-80
[4] = dose: 100.0 mg/kg/injection, schedule: Q01DX001 (ip), vehicle: saline
[5] = dose: 100.0 mg/kg/injection, schedule: Q04DX003 (ip), vehicle: saline
[6] = dose: 100.0 mg/kg/injection, schedule: Q01DX009 (ip), vehicle: saline with Tween-80
[7] = dose: 200.0 mg/kg/injection, schedule: Q01DX009 (ip), vehicle: saline with Tween-80
[8] = dose: 400.0 mg/kg/injection, schedule: Q01DX009 (ip), vehicle: saline with Tween-80
[9] = dose: 400.0 mg/kg/injection, schedule: Q01DX001 (ip), vehicle: saline
[10] = dose: 100.0 mg/kg/injection, schedule: Q01DX001 (ip), vehicle: carboxymethylcellulose (CMC)
[11] = dose: 200.0 mg/kg/injection, schedule: Q01DX001 (ip), vehicle: carboxymethylcellulose (CMC)
[12] = dose: 50.0 mg/kg/injection, schedule: Q01DX009 (ip), vehicle: Klucel (hydroxypropylcellulose) (HPC)
[13] = dose: 100.0 mg/kg/injection, schedule: Q01DX009 (ip), vehicle: Klucel (hydroxypropylcellulose) (HPC)
[14] = dose: 100.0 mg/kg/injection, schedule: Q04DX003 (ip), vehicle: Klucel (hydroxypropylcellulose) (HPC)
[15] = dose: 200.0 mg/kg/injection, schedule: Q01DX009 (ip), vehicle: Klucel (hydroxypropylcellulose) (HPC)
[16] = dose: 200.0 mg/kg/injection, schedule: Q04DX003 (ip), vehicle: Klucel (hydroxypropylcellulose) (HPC)
[17] = dose: 400.0 mg/kg/injection, schedule: Q01DX009 (ip), vehicle: Klucel (hydroxypropylcellulose) (HPC)
[18] = dose: 400.0 mg/kg/injection, schedule: Q04DX003 (ip), vehicle: Klucel (hydroxypropylcellulose) (HPC)

Measured: T/C

OCN(CO)c1ccc2c(c1)Cc1cc(F)ccc1-2
inactive: dose: 100.0 mg/kg/injection, schedule: Q04DX003 (ip), vehicle: acetone 107 % of control | dose: 200.0 mg/kg/injection, schedule: Q04DX003 (ip), vehicle: acetone 98 % of control

O=C(N/N=C/c1c(Cl)cccc1Cl)C1CCCO1 (configuration not stated)
inactive: dose: 6.25 mg/kg/injection, schedule: Q01DX009 (ip), vehicle: Klucel (hydroxypropylcellulose) (HPC) 96 % of control | dose: 12.5 mg/kg/injection, schedule: Q01DX009 (ip), vehicle: Klucel (hydroxypropylcellulose) (HPC) 96 % of control | dose: 25.0 mg/kg/injection, schedule: Q01DX009 (ip), vehicle: Klucel (hydroxypropylcellulose) (HPC) 95 % of control and 91 % of control

O=C(O)c1cccc2cccc(C3SCCS3)c12
inactive: [1] 101 % of control | [2] 104 % of control | [3] 90 % of control

CCCCCCN
inactive: dose: 25.0 mg/kg/injection, schedule: Q01DX001 (ip), vehicle: saline 97 % of control | dose: 25.0 mg/kg/injection, schedule: Q01DX009 (ip), vehicle: saline 93 % of control and 105 % of control | dose: 25.0 mg/kg/injection, schedule: Q04DX002 (ip), vehicle: saline 97 % of control and 100 % of control | dose: 25.0 mg/kg/injection, schedule: Q04DX003 (ip), vehicle: saline 103 % of control | dose: 50.0 mg/kg/injection, schedule: Q01DX001 (ip), vehicle: saline 111 % of control | dose: 50.0 mg/kg/injection, schedule: Q01DX009 (ip), vehicle: saline 101 % of control and 104 % of control | dose: 50.0 mg/kg/injection, schedule: Q04DX002 (ip), vehicle: saline 97 % of control and 103 % of control | dose: 50.0 mg/kg/injection, schedule: Q04DX003 (ip), vehicle: saline 114 % of control | [4] 101 % of control | dose: 100.0 mg/kg/injection, schedule: Q01DX009 (ip), vehicle: saline 102 % of control | [5] 110 % of control

Cc1cc[n+]2cc3ccc4ccccc4c3c(C)c2c1
inactive: dose: 2.0 mg/kg/injection, schedule: Q01DX015 (ip), vehicle: saline 102 % of control | dose: 3.12 mg/kg/injection, schedule: Q01DX009 (ip), vehicle: acetone 106 % of control | dose: 4.0 mg/kg/injection, schedule: Q01DX015 (ip), vehicle: saline 95 % of control | dose: 6.25 mg/kg/injection, schedule: Q01DX009 (ip), vehicle: acetone 101 % of control | dose: 8.0 mg/kg/injection, schedule: Q01DX015 (ip), vehicle: saline 101 % of control | dose: 12.5 mg/kg/injection, schedule: Q04DX003 (ip), vehicle: acetone 106 % of control | dose: 16.0 mg/kg/injection, schedule: Q01DX015 (ip), vehicle: saline 118 % of control

O=C(NCCc1ccc([N+](=O)[O-])cc1)c1ccc(S(=O)(=O)F)cc1
inactive: dose: 100.0 mg/kg/injection, schedule: Q01DX001 (ip), vehicle: Klucel (hydroxypropylcellulose) (HPC) 103 % of control | dose: 200.0 mg/kg/injection, schedule: Q01DX001 (ip), vehicle: Klucel (hydroxypropylcellulose) (HPC) 94 % of control | dose: 400.0 mg/kg/injection, schedule: Q01DX001 (ip), vehicle: Klucel (hydroxypropylcellulose) (HPC) 103 % of control

COc1ccc(OC(=O)Nc2c(C)cccc2C)cc1
inactive: [6] 95 % of control | [1] 98 % of control | [7] 91 % of control | [2] 105 % of control | [8] 94 % of control | [3] 100 % of control

NC1CCCCC1Cl (configuration not stated)
inactive: [4] 98 % of control | dose: 200.0 mg/kg/injection, schedule: Q01DX001 (ip), vehicle: saline 96 % of control | [9] 98 % of control

C=CC1CN2CCC1CC2C(O)c1ccnc2ccccc12 (configuration not stated) (tested in a mixture with another compound)
inactive: dose: 25.0 mg/kg/injection, schedule: Q01DX009 (ip), vehicle: saline with Tween-80 101 % of control | dose: 50.0 mg/kg/injection, schedule: Q01DX009 (ip), vehicle: saline with Tween-80 98 % of control | [10] 91 % of control | [6] 93 % of control | [11] 98 % of control | dose: 400.0 mg/kg/injection, schedule: Q01DX001 (ip), vehicle: carboxymethylcellulose (CMC) 93 % of control

COc1cc([N+](=O)[O-])c2ncccc2c1
inactive: [12] 102 % of control | [13] 105 % of control | [14] 94 % of control | [15] 104 % of control | [16] 91 % of control | [17] 115 % of control | [18] 104 % of control

Oc1c(Br)cc(Br)cc1/C=N/c1nc(-c2ccccc2)cs1.Oc1c(Br)cc(Br)cc1/C=N/c1nc(-c2ccccc2)cs1.[Co]
inactive: [4] 93 % of control | [9] 86 % of control

COC(=O)CCC(=O)NCCc1cccc(OC)c1
inactive: [14] 97 % of control | [16] 98 % of control | [18] 92 % of control

CC(C)CC(NC(=O)CN)C(=O)O (configuration not stated)
inactive: [5] 107 % of control | dose: 200.0 mg/kg/injection, schedule: Q04DX003 (ip), vehicle: saline 104 % of control | dose: 400.0 mg/kg/injection, schedule: Q04DX003 (ip), vehicle: saline 107 % of control

COc1ccc2c3c([nH]c2c1)C(C)=NCC3
inactive: dose: 25.0 mg/kg/injection, schedule: Q04DX002 (ip), vehicle: Klucel (hydroxypropylcellulose) (HPC) 93 % of control | dose: 50.0 mg/kg/injection, schedule: Q04DX002 (ip), vehicle: Klucel (hydroxypropylcellulose) (HPC) 101 % of control | dose: 100.0 mg/kg/injection, schedule: Q04DX002 (ip), vehicle: Klucel (hydroxypropylcellulose) (HPC) 93 % of control and 89 % of control

C1=C2NNC(c3ccccc3)=C(c3ccccc3)C2=CCC1 (tested in a mixture with another compound)
inactive: [12] 94 % of control | [13] 90 % of control | [15] 90 % of control

O=C(O)c1ccc2c(=O)[nH][nH]c(=O)c2c1
inactive: dose: 87.5 mg/kg/injection, schedule: Q01DX009 (ip), vehicle: Klucel (hydroxypropylcellulose) (HPC) 101 % of control | dose: 175.0 mg/kg/injection, schedule: Q01DX009 (ip), vehicle: Klucel (hydroxypropylcellulose) (HPC) 96 % of control | dose: 350.0 mg/kg/injection, schedule: Q01DX009 (ip), vehicle: Klucel (hydroxypropylcellulose) (HPC) 102 % of control

Cc1nc2ccccc2c(=O)n1NC(=O)c1cc([N+](=O)[O-])cc([N+](=O)[O-])c1
inactive: [6] 90 % of control | [7] 97 % of control | [8] 93 % of control

C/C=C(C)/C=N/Nc1nnc(N/N=C/C(C)=C/C)c2ccccc12
inactive: dose: 50.0 mg/kg/injection, schedule: Q01DX001 (ip), vehicle: carboxymethylcellulose (CMC) 95 % of control | [10] 95 % of control | [11] 103 % of control

C(=N\Nc1nc2ccccc2s1)/c1ccncc1
inactive: [13] 106 % of control | [15] 96 % of control | [17] 98 % of control
